Source: patent US6503945B2, “Cationic amphiphiles containing N-hydroxyalkyl group for intracellular delivery of biologically active molecules” (Council of Scientific & Industrial Research, priority 1909, dated 2003)

Test system: COS-1 cells
Experiment: Cell transfection assay (β-galactosidase reporter gene activity)
Type: cell-based, African green monkey
Conditions: compared to Lipofectamine
Procedure: Separate 1 mole (80 l of a 0.0126 M stock solution in chloroform) of N,N-di-n-hexadecyl-N,N-dihydroxyethylammonium bromide (DHDEAB) and 1 mole of the neutral colipid cholesterol (40 l of a 0.0255 M stock solution in chloroform) were combined in a glass vial. The solvent was evaporated initially by a thin flow of moisture free nitrogen and then under high flow for two minutes and then further dried under vacuum (1 mm Hg) for 6 hours.
The dried lipid film was then hydrated with sterile deionized water (1 ml) overnight (9-10 hours) in room temperature to produce a dispersed suspension. The hydrated mixture was then vortexed for 1 minute and was sonicated in a probe sonicator at a constant 25 W sonic power for 5 minutes. The concentrations of both DHDEAB and cholesterol in the resulting solution obtained after sonication was 1 mM. […]
For protein estimation, the resultant medium was removed from the plates and the cells were washed with PBS- Lysis buffer (1001 containing 250 mM Tris.HCl, pH 8.0, 0.5% NP40) was added and the cells were lysed for 30 minutes. […] The plates were read in an Elisa reader (Molecular Devices, Vmax) with a 650 nm filter. […]
The level of galactosidase activity in a 501 lysate was measured by adding to 501 of 2× gal mixture containing 1.33 mg/ml o-nitrophenyl--D-galactopyranoside (Sigma N1127), 200 mM sodium phosphate pH 7.15 and […]. […]

Molecule | in vitro transfection efficiencies
CCCCCCCCCCCCCCCC[N+](CCO)(CCO)CCCCCCCCCCCCCCCC [amphiphile No. 1, N,N-di-n-hexadecyl-N, N-dihydroxyethylammonium bromide] | enhanced
N,N,-di[O-hexadecanoyl]hydroxyethyl-N-hydroxyethyl-N-methylammonium bromide [amphiphile No. 5] | enhanced
